# Laboratory results reported in patent US6759060B2, “Synthetic particulate vectors and preparation process” (Biovector Therapeutics, S.A., priority 1993, dated 2004).
# Several values for one entry are separate records, joined by “and”; a condition that tells them apart may be missing. Identical values can stand only once.
# Experiments:
# [1] = cited from earlier work
# [2] = Filterability of ddCTP/PSC (filtration yield); format: physicochemical; conditions: ddCTP with or without cationic PSC
Filtration yield % [2] [%],Compound,pKa [1]
,COc1cccc2c1C(=O)c1c(O)c3c(c(O)c1C2=O)C[C@@](O)(C(=O)CO)C[C@@H]3O[C@H]1C[C@H](N)[C@H](O)[C@H](C)O1 [Doxorubicin],8.5 and 8.2-8.5
99.4 ± 0.8,dideoxy cytidine triphosphate [Free ddCTP],
